Laboratory results as given in US20110033461A1, “Combination Therapy for the Treatment of Cancer” (priority 2008, published 2011).
Read-outs that look alike come from different tables or passages of the source.

Tests used:
[1] = test system: HCT116 cells; assay: viability-based synergy experiment, C1368 and erlotinib, HCT116 cells; assay type: cell-based, human; conditions: for fold decrease of IC50 value, combination vs drug alone: C1368:erlotinib 1:25 ratio
Text: (§1) ED refers to the percentage of cell killed at different drug doses.

[2] = test system: HCT116 cells; assay: cell cycle analysis of erlotinib-treated HCT116 cells; assay type: cell-based, human
Text: Inhibition of Aurora kinase activity is associated with cell cycle arrest.

[3] = test system: DLD1 cells; assay: viability-based synergy experiment, C1368 and erlotinib, DLD1 cells; assay type: cell-based
Text: as §1

[4] = test system: HCT116 cells; assay: viability-based synergy experiment, C1368 and cetuximab, HCT116 cells; assay type: cell-based, human

C#Cc1cccc(Nc2ncnc3cc(OCCOC)c(OCCOC)cc23)c1 [erlotinib]
fold decrease of IC50 value, combination vs drug alone ([1]; HCT116 cells): > 3 fold
IC50 ([1]; Homo sapiens, HCT-116, read-out: IC50 value in combination): 12300 nM
IC50 ([1]; Homo sapiens, HCT-116, HCT116 cells, treatment with either drug alone, read-out: IC50 value, drug alone): 37300 nM
concentration at which there was a reduction in cell number suggesting cell death [2]: > 50 µM
induction of cell cycle arrest [2]: did not noticeably induce cell cycle arrest
IC50 ([3]; Homo sapiens, DLD-1, read-out: IC50 in combination): 13800 nM
IC50 ([3]; Homo sapiens, DLD-1, DLD1 cells, single agent, read-out: IC50, single agent): 71700 nM

O=C(Nc1cccc(Nc2nccc(Nc3cccc(C(F)(F)F)c3)n2)c1)C1CC1 [C1368]
IC50 ([4]; cetuximab with C1368, 1:109 ratio, read-out: IC50 value in combination): 1000 nM
IC50 ([4]; read-out: IC50 value, drug alone (cetuximab experiment), drug alone): 2100 nM
fold decrease of IC50 value, combination vs drug alone ([1]; HCT116 cells): > 4 fold
IC50 ([1]; HCT116 cells, combination of C1368 and erlotinib, 1:25 ratio, read-out: IC50 value in combination): 500 nM
IC50 ([1]; HCT116 cells, treatment with either drug alone, read-out: IC50 value, drug alone): 2300 nM
IC50 ([3]; DLD1 cells, combination treatment with C1368 and erlotinib, read-out: IC50 in combination): 500 nM
IC50 ([3]; DLD1 cells, single agent, read-out: IC50, single agent): 2700 nM
